Assay results: patent publication US20240343681A1, “MOLECULES HAVING PESTICIDAL UTILITY AND INTERMEDIATES AND PROCESSES RELATED THERETO” (priority 2021, published 2024)

Experiments:
target pests = experiment: Screening of separated stereoisomer peaks against target pests; assay type: in vivo; details: SFC-separated R,R and S,S isomers (F107 and F108)
Experimental: trans-rac-N-(3-Amino-4-chlorophenyl)-2,2-dichloro-3-(4-fluoro-3-(trifluoromethyl)phenyl)cyclopropane-1-carboxamide (C20, 1.0 g, 2.27 mmol) was added to a solution of 2,6-difluoronicotinic acid (0.36 g, 2.27 mmol) in toluene (25 mL). Pyridine (0.72 mL, 9.05 mmol) was added dropwise, and 2,4,6-tripropyl-1,3,5,2,4,6-trioxatriphosphinane 2,4,6-trioxide as a 50% solution in ethyl acetate (5.8 mL, 9.05 mmol) was added at room temperature. The reaction mixture was warmed to 110° C. and stirred for 16 hours, cooled to room temperature, and concentrated under reduced pressure. The residue was diluted with water (80 mL) and was extracted with ethyl acetate (2×80 mL). The combined organic phases were washed with saturated aqueous sodium chloride, dried over anhydrous sodium sulfate, and filtered, and the filtrate was concentrated under reduced pressure.

melting point | SMILES | efficacy against target pests, Peak-2 versus Peak-1 (target pests)
312 to 316 °C | O=C(Nc1cc(NC(=O)C2C(c3cc(Cl)cc(Cl)c3)C2(Cl)Cl)ccc1Cl)c1cccc(=O)[nH]1 (racemic) | 
109 to 113 °C | O=C(Nc1cc(NC(=O)C2C(c3cc(Cl)cc(Cl)c3)C2(Cl)Cl)ccc1Cl)c1cc(C(F)(F)F)cc(C(F)(F)F)c1 (racemic) | 
 | O=C(Nc1cc(NC(=O)[C@H]2[C@H](c3ccc(F)c(C(F)(F)F)c3)C2(Cl)Cl)ccc1Cl)c1ccc(F)nc1F (single isomer, unassigned) [F107] | significantly greater than Peak-1
